# Source: US20240245633A1, “ROR Gamma Agonists as Enhancers of Protective Immunity” (University of Florida Research Foundation, Incorporated, priority 2015, published 2024)
# Marks after values point to notes of the source that are not given here.
# Assays:
# [1] = biological target: T1, Gal4-RORγ (Homo sapiens, UniProt P51449); conditions: 30 μM, 2 μM ursolic acid
# T1 sequence (P51449 269-508 limits assumed): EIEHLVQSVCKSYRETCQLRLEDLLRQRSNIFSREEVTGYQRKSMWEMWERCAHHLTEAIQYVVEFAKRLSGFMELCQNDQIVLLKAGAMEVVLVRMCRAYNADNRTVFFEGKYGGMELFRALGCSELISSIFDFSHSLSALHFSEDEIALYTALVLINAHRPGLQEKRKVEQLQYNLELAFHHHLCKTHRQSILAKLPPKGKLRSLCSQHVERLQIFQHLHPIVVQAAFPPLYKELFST
# [2] = biological target: T2, full length RORγt (Homo sapiens, UniProt P51449); experiment: Full-length RORγt co-transfection with 5×RORE-Luc reporter in HEK293T cells; type: cell-based; conditions: 2 μM ursolic acid
# T2 construct: full length RORγt was co-transfected along with a luciferase reporter; expressed in transfected cells; host or cells: HEK293T
# T2 sequence (P51449 1-497 isoform P51449-2): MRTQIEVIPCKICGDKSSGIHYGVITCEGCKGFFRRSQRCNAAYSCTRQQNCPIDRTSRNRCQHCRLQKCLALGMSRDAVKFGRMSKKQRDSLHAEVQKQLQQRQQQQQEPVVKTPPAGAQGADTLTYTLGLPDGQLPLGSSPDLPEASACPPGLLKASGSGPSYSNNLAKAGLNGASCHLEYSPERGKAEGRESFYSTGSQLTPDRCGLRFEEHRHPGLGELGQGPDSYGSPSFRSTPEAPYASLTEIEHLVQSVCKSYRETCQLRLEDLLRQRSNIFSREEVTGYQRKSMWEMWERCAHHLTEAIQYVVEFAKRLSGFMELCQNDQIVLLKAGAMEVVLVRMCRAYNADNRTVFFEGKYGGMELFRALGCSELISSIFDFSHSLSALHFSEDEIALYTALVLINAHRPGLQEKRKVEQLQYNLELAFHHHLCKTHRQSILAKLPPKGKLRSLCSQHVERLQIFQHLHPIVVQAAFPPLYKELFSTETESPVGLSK
# Description: In order to determine if these compounds could modulate RORγt activity in the context of the full-length receptor, we used a co-transfection system in HEK293T cells in which full length RORγt was co-transfected along with a luciferase reporter under the control of either a basic promoter containing five copies of an ROR response element (5×RORE) or a minimal IL17 promoter.
# [3] = biological target: T1, Gal4-RORγ; parameters: RORγt activity after pre-treatment; fold induction of reporter gene expression; other: single concentration 30 μM; induction of luciferase expression at highest concentration of the concentration response curve; other: 30 μM, 2 μM urs; luciferase reporter gene expression; conditions: recently identified putative endogenous agonist; cited from earlier work
# [4] = biological target: T3, RORγt LBD pretreated with ursolic acid (Homo sapiens, UniProt P51449); experiment: Differential HDX-MS of RORγt pretreated with ursolic acid ± compound; type: binding
# T3 construct: 5 μL of a 10 μM RORγt LBD solution (Apo or in complex with 10-excess compound)
# T3 sequence (P51449 269-508 limits assumed): T1 sequence (P51449 269-508 limits assumed)
# Description: While the mechanism of action of RORγt agonists on regulation of the immune checkpoint receptor PD-1 is unclear, a correlation between RORγt and PD-1 expression has been observed in PD-1 knockout mice Z Regardless, to gain insights into the structural mechanism for agonist activity we examined the impact of putative agonist ligands on the conformational dynamics of RORγt. To achieve this, we utilized differential hydrogen/deuterium exchange (HDX) mass spectrometry.
# HDX-MS. Solution-phase amide HDX was performed with a fully automated system as described previously with minor modifications^30,31. For differential HDX experiments, 5 μL of a 10 μM RORγt LBD solution (Apo or in complex with 10-excess compound) was diluted to 25 μL with D20-containing HDX buffer, and incubated at 4° C. for; 10 s, 30s, 60s, 900s, and 3,600s, Following on-exchange, unwanted forward or back exchange is minimized and the protein is denatured by dilution to 50 μL with 0.1% TFA in 3M urea (held at 4° C., pH 2.5). Samples are then passed across an immobilized pepsin column (prepared in house) at 50 μL min−1 (0.1% TFA, 15° C.) and the resulting peptides are trapped onto a Ce trap cartridge (Thermo Fisher, Hypersil Gold). Peptides were then gradient eluted (4% CH3CN to 40% CH3CN, 0,3% formic acid over 5 minutes, 4° C.) across a 1 mm×50 mm Cia HPLC column (Hypersil Gold, Thermo Fisher) and electrosprayed directly into a high resolution orbitrap mass spectrometer (Exactive, Thermo Fisher). Percent deuterium exchange values for peptide isotopic envelopes at each time point were calculated and processed using HDX Workbench^32 and overlaid onto RORγt crystal structures using pyMOL (DeLano Scientific). HDX data is presented as an average of three individual replicates across […] time points (10s, 60s, 300s, 900s, and 3600s).
compound,measurement,setting,value
CC(C)=CCC[C@@H](C)[C@H]1CC[C@H]2[C@@H]3CC=C4C[C@@H](O)CC[C@]4(C)[C@H]3CC[C@]12C [desmosterol],induction of luciferase expression at highest concentration of the concentration response curve,[1],~2 fold
same,"reporter gene expression, 5×RORE promoter",[2],minimal induction of the reporter gene
same,restoring RORγt activity in the presence of ursolic acid,[3],capable of restoring RORγt activity in the presence of ursolic acid
same,protection to solvent exchange in H12,"[4]; RORγt exposed to ursolic acid, then compound",not observed
same,"Differential HDX kinetics, peptide TEIEHLVQ","[4]; UA pretreated, 268-275, charge 2, H1",−1(4)*
same,"Differential HDX kinetics, peptide TEIEHLVQSVC","[4]; UA pretreated, 268-278, charge 2, H1",−2(4)*
same,"Differential HDX kinetics, peptide TEIEHLVQSVCKS","[4]; UA pretreated, 268-280, charge 3, H1",2(2)*
same,"Differential HDX kinetics, peptide TEIEHLVQSVCKSYRETCQ","[4]; UA pretreated, 268-286, charge 3, H1",−1(3)*
same,"Differential HDX kinetics, peptide TEIEHLVQSVCKSYRETCQ","[4]; UA pretreated, 268-286, charge 4, H1",0(3)*
same,"Differential HDX kinetics, peptide RLEDL","[4]; UA pretreated, 288-292, charge 1, H2",10(2)*
same,"Differential HDX kinetics, peptide RLEDLL","[4]; UA pretreated, 288-293, charge 1, H2",10(2)*
same,"Differential HDX kinetics, peptide EVTGYQRKSMWEM","[4]; UA pretreated, 304-316, charge 2, H3/H4",−6(3)*
same,"Differential HDX kinetics, peptide WERCAHHLTEAIQ","[4]; UA pretreated, 317-329, charge 3, H4",−1(1)*
same,"Differential HDX kinetics, peptide WERCAHHTEAIQY","[4]; UA pretreated, 317-330, charge 3, H4",0(1)*
same,"Differential HDX kinetics, peptide WEGAKRLSGF","[4]; UA pretreated, 331-341, charge 2, H4/H5",−1(2)*
same,"Differential HDX kinetics, peptide FAKRLSGF","[4]; UA pretreated, 334-341, charge 2, H4/H5",0(2)*
same,"Differential HDX kinetics, peptide CQNDQM","[4]; UA pretreated, 345-352, charge 1, H5/H6",0(1)*
same,"Differential HDX kinetics, peptide CRAYNADNRTVF","[4]; UA pretreated, 368-377, charge 2, B1",0(2)*
same,"Differential HDX kinetics, peptide YNADNRTVF","[4]; UA pretreated, 369-377, charge 2, B1",−1(3)*
same,"Differential HDX kinetics, peptide FEGKYGGMEL","[4]; UA pretreated, 378-387, charge 2, B2/H7",−1(3)*
same,"Differential HDX kinetics, peptide FRALGCSEL","[4]; UA pretreated, 388-395, charge 2, H7/H8",−1(2)*
same,"Differential HDX kinetics, peptide LISSIFDFSHSLSAL","[4]; UA pretreated, 396-410, charge 2, H8",0(2)*
same,"Differential HDX kinetics, peptide ISSIFD","[4]; UA pretreated, 397-407, charge 1, H8",−3(2)*
same,"Differential HDX kinetics, peptide ISSIFDFSHSLSAL","[4]; UA pretreated, 397-410, charge 2, H8",0(2)*
same,"Differential HDX kinetics, peptide IFDFSHSLSAL","[4]; UA pretreated, 400-410, charge 2, H8",4(3)*
same,"Differential HDX kinetics, peptide DFSHSKSAL","[4]; UA pretreated, 402-410, charge 2, H8",3(2)*
same,"Differential HDX kinetics, peptide FSHSLSAL","[4]; UA pretreated, 403-410, charge 2, H8",0(3)*
same,"Differential HDX kinetics, peptide AXLPPXGKLRSLCSQ","[4]; UA pretreated, 454-478, charge 3, H11",−1(4)*
same,"Differential HDX kinetics, peptide HVERLQIFQHLHPIWQ","[4]; UA pretreated, 479-495, charge 2, H11",−6(3)*
same,"Differential HDX kinetics, peptide AAFPPLYKEL","[4]; UA pretreated, 496-505, charge 2, H12",−4(2)*
same,"Differential HDX kinetics, peptide AAFPPLYKELF","[4]; UA pretreated, 496-506, charge 2, H12",−3(2)*
same,"Differential HDX kinetics, peptide HFSEDEIAL","[4]; UA pretreated, charge 2, H9",−1(2)*
same,"Differential HDX kinetics, peptide QIFQHLHPIWQ","[4]; UA pretreated, charge 2, H11",−3(3)*
same,"Differential HDX kinetics, peptide TEIEHLVQSVCKSYRETCQL","[4]; UA pretreated, charge 3, H1",−3(4)*
same,"Differential HDX kinetics, peptide VRMCRAYNADNRTVF","[4]; UA pretreated, charge 3, H6/B1",−1(1)*
